Test results: patent publication US20210330788A1, “USES OF ANTI-BCMA CHIMERIC ANTIGEN RECEPTORS” (CELGENE CORPORATION, priority 2018, published 2021)

System: human multiple myeloma (RPMI-8226) tumors
Assay: Sub-cutaneous human multiple myeloma (RPMI-8226) tumor model in NSG mice (FIGS. 8A and 8B)
Type: in vivo, NOD scid gamma (NSG) mice
Settings: ˜100mm^3 tumors; 10^7 CAR T cells or Bortezomib; two independent experiments
Protocol: Hyperactivation and increased apoptosis could negatively impact CAR T cell persistence in patients and ultimately clinical efficacy. The anti-tumor function of anti-BCMA02 CAR T cells and anti-BCMA10 CAR T cells was examined in a mouse tumor model. NOD-scid gamma (NSG) mice with ˜100mm^3 experimental sub-cutaneous human multiple myeloma (RPMI-8226) tumors were treated with 10^7 anti-BCMA02 CAR T cells, 10^7 anti-BCMA10 CAR T cells, or Bortezomib (VELCADE®). RPMI-8226 growth was monitored with calipers.

CC(C)C[C@H](NC(=O)[C@H](Cc1ccccc1)NC(=O)c1cnccn1)B(O)O [Bortezomib]
RPMI-8226 tumor growth (calipers): controlled tumor growth
